These are literature values, as cited in patent US8569304B2, “Active esters of N-substituted piperazine acetic acids, including isotopically enriched versions thereof” (DH Technologies Development Pte. Ltd., priority 2004, dated 2013).

The conditions of the series: alcohol (leaving group) used to form the trifluoroacetate ester / active ester.

In general, pKa refers to the pH at which an ionisable group is half protonated. As to `O=C1CCC(=O)N1O` [NHS, N-Hydroxysuccinimide], the pKa is 7.80.
